Source: US20230181661A1, “MUSHROOM-CONTAINING CHINESE MEDICINE COMPOUND COMPOSITION FOR KELOID SCAR TISSUE AND APPLICATION THEREOF” (ASIA UNIVERSITY, priority 2021, published 2023)

Tested on: KFS cells
Assay: Cell metabolic activity assay (MTT assay)
Assay type: cell-based
Conditions: 6.25 to 100 micromolar concentration
Protocol: KFS cells were obtained from the Biosource Collection and Research Center (BCRC) of the Food Industry Research and Development Institute (Hsinchu, Taiwan). KFS cells were cultured in Dulbecco's modified eagle medium (DMEM) containing 10% FBS, 1.5 g/L sodium bicarbonate, 4 mM L-glutamine, 4.5 g/L glucose, 100 units/mL penicillin G, and 100 μg/mL streptomycin sulfate. All cells were incubated in a humidified environment with 5% CO2 and 37° C. The medium was refreshed every 2 days. KFS cells (2×10^4 cells/well) were seeded in 96-well plates overnight. KFS cells were exposed to different concentrations of a test drug in 100 μL of medium (for example, combination of 10 Chinese medicine ingredients). After 24 hours treatment, 10 μL of 5 mg/mL MTT (3-(4,5-dimethylthiazol-2-yl)-2,5-diphenyltetrazolium bromide) was added to each well. After incubation for 4 hours, cells were washed twice with 1×PBS. Next, 200 μL of dimethyl sulfoxide (DMSO) was added to each well. An absorbance value at 570 nm was determined for each well by using 650 nm as a reference wavelength. Compared with a control group (untreated with reagents), the absorbance may be correlated with the percentage of active cells. The cell metabolic activity rate is calculated as follows: Cell metabolic activity (%)=OD (treatment)/OD (control)×100%.

SMILES: COc1cc(/C=C/C(=O)CC(=O)/C=C/c2ccc(O)c(OC)c2)ccc1O [Curcumin]
- growth of keloid fibroblasts: inhibit the growth

SMILES: Oc1ccc(C=Cc2cc(O)cc(O)c2)cc1 [Resveratrol]
- growth of keloid fibroblasts: inhibit the growth
